The nature of data set [1]: Inhibition of cPLA2alpha.
Data set [2] is described as follows: Inhibition of human recombinant His-tagged cPLA2alpha expressed in baculovirus-infected Sf9 cells assessed as residual activity at 10 uM after 1 hr by RP-HPLC analysis.
A short description of data set [3]: Aqueous solubility of the compound at >10 uM. The class given is physicochemical. To be noted: buffer.
The nature of data set [4]: Inhibition of cPLA2alpha-mediated [3H]-arachidonic acid release in Ca2+ ionophore A23187-stimulated human monocytes preincubated for 15 mins prior Ca2+ ionophore A23187 stimulation measured after 5 mins by scintillation counting.
Data set [5] can be described thus: Inhibition of human recombinant His-tagged cPLA2alpha expressed in baculovirus-infected Sf9 cells after 1 hr by RP-HPLC analysis.

The text below walks through data of ChEMBL document CHEMBL1944552, “Pharmacophore-based discovery of a novel cytosolic phospholipase A(2)α inhibitor” (Bioorg Med Chem Lett, 2012).

The term IC50 denotes the point on the concentration scale where inhibition reaches its midpoint.

Regarding `O=C(COc1ccc(C(=O)O)cc1)COc1ccc(C(=O)NCCCCc2ccccc2)cc1`, 20 µM corresponded to half-maximal inhibition in data set [1] (IC50). In data set [1], `O=C(COc1ccc(SCCCCSc2nccs2)cc1)COc1ccc(C(=O)O)cc1` had an IC50 of 0.76 µM.

For `CCCCCCCCCCCCCCCC1=NN(c2ccc(S(=O)(=O)O)cc2)C(=O)C1/N=N/c1ccccc1` (centres undefined), in data set [2], the Activity amounted to 77.1%. Further, the solubility entry in data set [3] is “Insoluble”.

Turning to `CCCCCCCCCCCCCCCCCC1=NCCN1CCN(CS(=O)(=O)O)CS(=O)(=O)O`, the Activity in data set [2] was determined as 106%. Besides, the solubility entry in data set [3] is “Insoluble”.

Consider `CCCCCCCCCCCCCCCc1nnc(SCC(=O)O)[nH]1`, for which the Activity in data set [2] stood at 85.1%. Further, the solubility result in data set [3] was “Insoluble”. For `Cc1cc(-c2ccc(/N=N/c3c(S(=O)(=O)O)cc4cc(S(=O)(=O)O)cc(N)c4c3O)c(C)c2)ccc1/N=N/c1ccc2c(S(=O)(=O)O)ccc(N)c2c1O` the same measures were 87.5% and “Insoluble”. For `Cn1ccnc1SCCCCOc1ccc(OCC(=O)COc2ccc(C(=O)O)cc2)cc1`, the IC50 in data set [1] was found to be 63 µM. In the case of `CCCCCCCCCCCCCCCCN(C)c1ccc(S(=O)(=O)O)cc1[N+](=O)[O-]`, the Activity in data set [2] worked out at 61.4%. Further, in data set [3], the solubility result was “Insoluble”. In the case of `CCCCCCCCCCCCCCCCOc1ccc(C(=O)O)cc1NC(=O)/C(=N/O)C(C)=O`, the values for the IC50 in data set [4] and in data set [5] were 5 µM and 4 µM, respectively. As to `CCCCCCCCCCCCCCCCOc1ccc(S(=O)(=O)N/N=c2/sc3ccc(S(=O)(=O)O)cc3n2C)cc1C(=O)O`, the Activity in data set [2] amounted to 70.2%. The solubility entry in data set [3] is given as “Insoluble”. Take `CCCCCCCCCCCCCCCc1cc(=O)n(-c2ccc(NC(=O)/C=C/C(=O)O)cc2)n1C`: in data set [2], the Activity was 92.6%. Further, the solubility entry in data set [3] was “Insoluble”. Turning to `CCCCCCCCCCCCCCCCOc1ccc(C(=O)O)cc1`, the Activity in data set [2] was determined as 88.4%. Besides, the solubility result in data set [3] was “Insoluble”.

Compound `CN(CCc1ccccc1)C(=O)CSc1ccc(OCC(=O)COc2ccc(C(=O)O)cc2)cc1` gave an IC50 in data set [1] of 34 µM. As to `CCCCCCCCCCCCCCCCCC1=NCCN1CS(=O)(=O)O`, in data set [2], the Activity worked out at 94.7%. Besides, in data set [3], the solubility entry is “Insoluble”.

On to `Cc1cc(N)ccc1/N=N/c1ccc(/N=N/c2ccc(/N=N/c3ccc4cc(S(=O)(=O)O)cc(S(=O)(=O)O)c4c3)c(C)c2)c(C)c1`, for which the Activity in data set [2] was determined as 81.9%. Moreover, in data set [3], the solubility entry is reported as “Insoluble”. For `COc1cc(/N=N/c2ccc3cc(S(=O)(=O)O)cc(S(=O)(=O)O)c3c2)ccc1/N=N/c1ccc(NC(=O)c2ccc(NC(=O)c3ccccc3)cc2)cc1C` the same measures were 62.7% and “Insoluble”. Take `O=C(COc1ccc(SCCCCCc2ccccc2)cc1)COc1ccc(C(=O)O)cc1`: the IC50 in data set [1] stood at 0.004 µM.
